Data on eight compounds can be found in PubChem BioAssay (NCI).

Several values for one entry are separate records, joined by “and”; a condition that tells them apart may be missing. Identical values can stand only once.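 Where inhibition never reached the appropriate level, the endpoint shown equals the highest concentration tested. Otherwise, values were interpolated linearly from a five-concentration, 48-hour dose response in 96-well plates. GI50: concentration for 50% inhibition of growth. At the TGI there is no net growth.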 Where only a bound is given, the exact number is not on record here.

Holding throughout (assay): inhibition of tumour cell growth, NCI panel, 48 h
Experiment [1] concerns PC-3 prostate.
Experiment [2] deals with HCT-15 colon.
For experiment [3], the system named is SR leukemia.
Experiment [4] relates to SF-295 CNS.
Experiment [5] relates to U251 CNS.
Experiment [6] deals with HOP-62 NSCLC.
The test system of experiment [7] is EKVX NSCLC.
Experiment [8] concerns SK-MEL-28 melanoma.
The subject of experiment [9] is UACC-62 melanoma.
Experiment [10] relates to M14 melanoma.

Regarding `O=C1CCc2c(sc3[nH]c(=S)n(Cc4ccc(Cl)cc4)c(=O)c23)C1`, the GI50 was 0.309 µM in [1]; 0.347 µM in experiment [2]; 0.562 µM in experiment [3]; 0.863 µM in experiment [4]; 0.377 µM in experiment [5]; 1.47 µM in experiment [6]. For the same compound, the GI50 in [7] was 0.544 µM; in experiment [8] it was 0.64 µM; in [9], 0.329 µM; in experiment [10], 0.477 µM. The TGI in [1] is over 35.8 µM; in [2] it was 1.64 µM; in experiment [3] it was over 45.2 µM; in [4] it was 4.68 µM; in [5], 18 µM; in experiment [6], over 100 µM. For the same compound, the TGI is over 100 µM in [7], over 21.1 µM in experiment [8], 1.76 µM in experiment [9] and over 56.3 µM in [10].
Turning to `CSc1nc(SC)c2c(CO)c(Br)n(Cc3ccccc3)c2n1`, the TGI was over 100 µM in [1]; over 100 µM in experiment [2]; over 100 µM in [3]; 40.9 µM in experiment [4]; 26.3 µM in experiment [5]; 80.1 µM in [6]. For the same compound, the TGI is over 100 µM in [7], over 100 µM in [8], 41.9 µM in [9] and over 100 µM in experiment [10].
For the compound `O=C(/C=C/c1ccc(C(F)(F)F)cc1)c1ccc(Nc2nc(NCCO)nc(Nc3ccc(Cl)cc3)n2)cc1`, the GI50 in experiment [1] was 2.99 µM; in experiment [2], 2.08 µM; in [3], 1.95 µM; in experiment [4] it was 3.98 µM; in [5] it was 2.18 µM; in experiment [6], 8.55 µM. Besides, the GI50 in experiment [7] is 3.41 µM; in experiment [8], 5.88 µM; in experiment [9] it was 6.32 µM; in experiment [10] it was 3.5 µM. Also, the TGI in experiment [1] worked out at 15 µM; in [2], 5.92 µM; in experiment [3], 8.74 µM; in experiment [4], 14.7 µM; in [5], 5.57 µM; in experiment [6], 22 µM. Moreover, the TGI in [7] came out at 14.5 µM; in experiment [8], 18.3 µM; in experiment [9], 19.5 µM; in [10], 13.4 µM.
`O=C1c2ccccc2S(=O)(=O)c2cc(-c3nn[nH]n3)ccc21`: the TGI in experiment [1], in experiment [2], in [3], in experiment [4], in experiment [5] and in experiment [6] was over 100 µM each time. For the same compound, the TGI in experiment [7], in [8], in [9] and in [10] was over 100 µM in each case.
As to `OCC#Cc1ccccc1C#CCCCCCC#Cc1ccccc1C#CCO`, the GI50 in experiment [1] was 18.1 µM; in experiment [2], 15.9 µM; in experiment [3], 18.1 µM; in experiment [4], 16.9 µM; in [5], 20.9 µM; in experiment [6], 16.2 µM. The GI50 was 21.3 µM in [7], 29 µM in experiment [8], 17.9 µM in experiment [9] and 15.4 µM in experiment [10]. In addition, the TGI is 38.8 µM in [1]; 30.7 µM in experiment [2]; 40.7 µM in [3]; 33.8 µM in experiment [4]; 36 µM in experiment [5]; 31.4 µM in experiment [6]. The TGI was 42.4 µM in [7], over 100 µM in experiment [8], 32.3 µM in experiment [9] and 29.2 µM in [10].
Take `COc1ccc(-c2ccc(-c3ccc(C(=N)N)o3)o2)cc1`: the GI50 in [1] was 1.86 µM; in [2] it was 0.675 µM; in experiment [3], 0.417 µM; in experiment [4], 1.68 µM; in experiment [5], 1.74 µM; in experiment [6] it was 1.51 µM. Further, the GI50 was 2.79 µM in experiment [7], 1.67 µM in experiment [8], 1.29 µM in [9] and 1.47 µM in [10]. Further, the TGI in experiment [1] was 7.07 µM; in experiment [2], 4.72 µM; in experiment [3] it was 2.79 µM; in experiment [4], 3.51 µM; in experiment [5], 4.12 µM; in experiment [6], 4.51 µM. The TGI in [7] is 14.5 µM; in [8], 3.66 µM; in experiment [9], 3.05 µM; in experiment [10] it was 3.87 µM.
For `C#CCOc1cccc(Nc2ncnc3cc(NC(=O)CCl)ccc23)c1`, the GI50 in [1] is 2.57 µM; in experiment [2], 1.51 µM; in experiment [3], 0.49 µM; in experiment [4], 3.52 µM; in experiment [5], 2.13 µM; in experiment [6], 11.3 µM. Moreover, the GI50 was 12 µM in experiment [7], 11 µM in [8], 4.24 µM in experiment [9] and 5.11 µM in [10]. Also, the TGI came to 12 µM in experiment [1]; 6.8 µM in experiment [2]; 5.59 µM in experiment [3]; 15.2 µM in [4]; 4.78 µM in experiment [5]; 28.8 µM in experiment [6]. Further, the TGI turned out to be 30 µM in experiment [7], 24.4 µM in [8], 16.9 µM in [9] and 20.4 µM in [10].
For `COc1cc(Nc2ncc(F)c(Nc3ccc4c(n3)N(COP(=O)(O)O)C(=O)C(C)(C)O4)n2)cc(OC)c1OC`, the GI50 was 2.1 µM and 4.17 µM in [1]; 2.45 µM and 3.22 µM in [2]; 2.93 µM and 2.97 µM in experiment [3]; 1.39 µM and 1.17 µM in experiment [4]; 7.55 µM and 2 µM in [5]; 2.25 µM and 0.753 µM in experiment [6]. For the same compound, the GI50 in [7] is 2.19 µM and 1.93 µM; in experiment [8], 3.69 µM and 5.05 µM; in experiment [9], 2.1 µM and 1.64 µM; in experiment [10], 2.71 µM and 2.88 µM. Moreover, the TGI was 22.6 µM and > 10 µM in experiment [1]; over 100 µM in experiment [2]; over 36.5 µM in [3]; 7.55 µM and 8.7 µM in [4]; over 100 µM in experiment [5]; 10.2 µM and 7.37 µM in experiment [6]. Moreover, the TGI in experiment [7] is 13.7 µM and > 10 µM; in [8], 21 µM and > 10 µM; in experiment [9], 12 µM and > 10 µM; in experiment [10], 29.4 µM and > 10 µM.
